Assay results taken from the supplement of paper PMC10307832.

Columns and labels:
Experiment in all cases: relative viability (nuclei count vs DMSO), 5 days (fraction); higher = more cells survive
Afatinib = compound: CN(C)C/C=C/C(=O)Nc1cc2c(Nc3ccc(F)c(Cl)c3)ncnc2cc1O[C@H]1CCOC1 [Afatinib]
Procedure, shortened: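 After an overnight hold at 37 °C, lung cancer cell lines in 1536-well plates were pinned with five library-drug doses (not always all listed), each √10 from the next, on vehicle-anchored plates. The cells stayed 5 days without fresh medium, then a one-step fix, permeabilisation and Hoechst stain preceded 4× imaging and MetaXpress nuclear counts. A plate passed only with control CV under 25% and at least one doubling. Viability is the median, over plates, of treated-well nuclei relative to vehicle-well nuclei.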

Afatinib + Bortezomib = compound: CN(C)C/C=C/C(=O)Nc1cc2c(Nc3ccc(F)c(Cl)c3)ncnc2cc1O[C@H]1CCOC1 [Afatinib] + CC(C)C[C@H](NC(=O)[C@H](Cc1ccccc1)NC(=O)c1cnccn1)B(O)O [Bortezomib] (partner 0.002 µM)
Procedure, shortened: (§1)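 A single step with final 0.05% Triton X-100, 1% formaldehyde and 1 ug/ml Hoechst fixed the cells and stained nuclei 5 days after treatment. Lung cancer cell lines in 1536-well plates had been treated by pin tool the day after seeding with one drug alone or a fixed anchor-drug dose plus five library-drug doses (not always all listed) in √10 steps, and nuclei were counted on 4× images. Relative viability is the ratio of nuclei in treated wells to nuclei in vehicle wells, taken as the median of duplicate plates.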

Afatinib + Navitoclax = compound: CN(C)C/C=C/C(=O)Nc1cc2c(Nc3ccc(F)c(Cl)c3)ncnc2cc1O[C@H]1CCOC1 [Afatinib] + CC1(C)CCC(c2ccc(Cl)cc2)=C(CN2CCN(c3ccc(C(=O)NS(=O)(=O)c4ccc(N[C@H](CCN5CCOCC5)CSc5ccccc5)c(S(=O)(=O)C(F)(F)F)c4)cc3)CC2)C1 [Navitoclax] (partner 0.5 µM)
Procedure, shortened: as §1

Afatinib + Foretinib = compound: CN(C)C/C=C/C(=O)Nc1cc2c(Nc3ccc(F)c(Cl)c3)ncnc2cc1O[C@H]1CCOC1 [Afatinib] + COc1cc2c(Oc3ccc(NC(=O)C4(C(=O)Nc5ccc(F)cc5)CC4)cc3F)ccnc2cc1OCCCN1CCOCC1 [Foretinib] (partner 0.25 µM)
Procedure, shortened: as §1

Afatinib + Lapatinib = compound: CN(C)C/C=C/C(=O)Nc1cc2c(Nc3ccc(F)c(Cl)c3)ncnc2cc1O[C@H]1CCOC1 [Afatinib] + CS(=O)(=O)CCNCc1ccc(-c2ccc3ncnc(Nc4ccc(OCc5cccc(F)c5)c(Cl)c4)c3c2)o1 [Lapatinib] (partner 2 µM)
Procedure, shortened: as §1

Afatinib + Pictilisib = compound: CN(C)C/C=C/C(=O)Nc1cc2c(Nc3ccc(F)c(Cl)c3)ncnc2cc1O[C@H]1CCOC1 [Afatinib] + CS(=O)(=O)N1CCN(Cc2cc3nc(-c4cccc5[nH]ncc45)nc(N4CCOCC4)c3s2)CC1 [Pictilisib] (partner 1 µM)
Procedure, shortened: as §1

Afatinib + Crizotinib = compound: CN(C)C/C=C/C(=O)Nc1cc2c(Nc3ccc(F)c(Cl)c3)ncnc2cc1O[C@H]1CCOC1 [Afatinib] + C[C@@H](Oc1cc(-c2cnn(C3CCNCC3)c2)cnc1N)c1c(Cl)ccc(F)c1Cl [Crizotinib] (partner 1 µM)
Procedure, shortened: as §1

Afatinib + Linsitinib = compound: CN(C)C/C=C/C(=O)Nc1cc2c(Nc3ccc(F)c(Cl)c3)ncnc2cc1O[C@H]1CCOC1 [Afatinib] + C[C@]1(O)C[C@@H](c2nc(-c3ccc4ccc(-c5ccccc5)nc4c3)c3c(N)nccn32)C1 [Linsitinib] (partner 1 µM)
Procedure, shortened: as §1

Afatinib + Alpelisib = compound: CN(C)C/C=C/C(=O)Nc1cc2c(Nc3ccc(F)c(Cl)c3)ncnc2cc1O[C@H]1CCOC1 [Afatinib] + Cc1nc(NC(=O)N2CCC[C@H]2C(N)=O)sc1-c1ccnc(C(C)(C)C(F)(F)F)c1 [Alpelisib] (partner 2 µM)
Procedure, shortened: as §1

Afatinib + Vorinostat = compound: CN(C)C/C=C/C(=O)Nc1cc2c(Nc3ccc(F)c(Cl)c3)ncnc2cc1O[C@H]1CCOC1 [Afatinib] + O=C(CCCCCCC(=O)Nc1ccccc1)NO [Vorinostat] (partner 1 µM)
Procedure, shortened: as §1

Afatinib + Olaparib = compound: CN(C)C/C=C/C(=O)Nc1cc2c(Nc3ccc(F)c(Cl)c3)ncnc2cc1O[C@H]1CCOC1 [Afatinib] + O=C(c1cc(Cc2n[nH]c(=O)c3ccccc23)ccc1F)N1CCN(C(=O)C2CC2)CC1 [Olaparib] (partner 8 µM)
Procedure, shortened: as §1

IA-LM
relative viability (Afatinib; 0.005 µM): 0.925
relative viability (Afatinib; 0.01581 µM): 0.868
relative viability (Afatinib; 0.05 µM): 0.905
relative viability (Afatinib; 0.1581 µM): 0.883
relative viability (Afatinib; 0.5 µM): 0.871
relative viability (Afatinib + Bortezomib; first compound 0.005 µM): 0.929
relative viability (Afatinib + Bortezomib; first compound 0.01581 µM): 0.719
relative viability (Afatinib + Bortezomib; first compound 0.05 µM): 0.796
relative viability (Afatinib + Bortezomib; first compound 0.1581 µM): 0.828
relative viability (Afatinib + Bortezomib; first compound 0.5 µM): 0.825
relative viability (Afatinib + Navitoclax; first compound 0.005 µM): 0.689
relative viability (Afatinib + Navitoclax; first compound 0.01581 µM): 0.821
relative viability (Afatinib + Navitoclax; first compound 0.05 µM): 0.906
relative viability (Afatinib + Navitoclax; first compound 0.1581 µM): 0.796
relative viability (Afatinib + Navitoclax; first compound 0.5 µM): 0.933
relative viability (Afatinib + Foretinib; first compound 0.005 µM): 1.47
relative viability (Afatinib + Foretinib; first compound 0.01581 µM): 1.13
relative viability (Afatinib + Foretinib; first compound 0.05 µM): 1.2
relative viability (Afatinib + Foretinib; first compound 0.1581 µM): 1.03
relative viability (Afatinib + Foretinib; first compound 0.5 µM): 1.07
relative viability (Afatinib + Lapatinib; first compound 0.005 µM): 0.935
relative viability (Afatinib + Lapatinib; first compound 0.01581 µM): 0.867
relative viability (Afatinib + Lapatinib; first compound 0.05 µM): 0.753
relative viability (Afatinib + Lapatinib; first compound 0.1581 µM): 0.828
relative viability (Afatinib + Lapatinib; first compound 0.5 µM): 0.708
relative viability (Afatinib + Pictilisib; first compound 0.005 µM): 0.251
relative viability (Afatinib + Pictilisib; first compound 0.01581 µM): 0.221
relative viability (Afatinib + Pictilisib; first compound 0.05 µM): 0.227
relative viability (Afatinib + Pictilisib; first compound 0.1581 µM): 0.198
relative viability (Afatinib + Pictilisib; first compound 0.5 µM): 0.212
relative viability (Afatinib + Crizotinib; first compound 0.005 µM): 1.12
relative viability (Afatinib + Crizotinib; first compound 0.01581 µM): 0.728
relative viability (Afatinib + Crizotinib; first compound 0.05 µM): 1.04
relative viability (Afatinib + Crizotinib; first compound 0.1581 µM): 0.74
relative viability (Afatinib + Crizotinib; first compound 0.5 µM): 1.11
relative viability (Afatinib + Linsitinib; first compound 0.005 µM): 0.67
relative viability (Afatinib + Linsitinib; first compound 0.01581 µM): 0.713
relative viability (Afatinib + Linsitinib; first compound 0.05 µM): 0.502
relative viability (Afatinib + Linsitinib; first compound 0.1581 µM): 0.571
relative viability (Afatinib + Linsitinib; first compound 0.5 µM): 0.601
relative viability (Afatinib + Alpelisib; first compound 0.005 µM): 0.653
relative viability (Afatinib + Alpelisib; first compound 0.01581 µM): 0.658
relative viability (Afatinib + Alpelisib; first compound 0.05 µM): 0.691
relative viability (Afatinib + Alpelisib; first compound 0.1581 µM): 0.693
relative viability (Afatinib + Alpelisib; first compound 0.5 µM): 0.797
relative viability (Afatinib + Vorinostat; first compound 0.005 µM): 1.1
relative viability (Afatinib + Vorinostat; first compound 0.01581 µM): 0.964
relative viability (Afatinib + Vorinostat; first compound 0.05 µM): 0.866
relative viability (Afatinib + Vorinostat; first compound 0.1581 µM): 0.81
relative viability (Afatinib + Vorinostat; first compound 0.5 µM): 0.892
relative viability (Afatinib + Olaparib; first compound 0.005 µM): 1.07
relative viability (Afatinib + Olaparib; first compound 0.01581 µM): 0.821
relative viability (Afatinib + Olaparib; first compound 0.05 µM): 0.947
relative viability (Afatinib + Olaparib; first compound 0.1581 µM): 0.761
relative viability (Afatinib + Olaparib; first compound 0.5 µM): 0.805
